Assay: xn = mol fraction of the nth substance listed, in the solute-free solvent

COC(=O)C(N)CS.Cl (stereo not given) + CCO + ClCCl
solubility (g/100 g solution)
Conditions	x2 = 0.05	x2 = 0.1	x2 = 0.2	x2 = 0.3	x2 = 0.4	x2 = 0.5	x2 = 0.6	x2 = 0.7	x2 = 0.8	x2 = 0.9
283.15 K	0.323	0.991	1.88	2.62	3.2	3.86	4.64	5.33	6.02	6.92
288.15 K	0.362	1.02	2.21	3.14	3.93	4.46	5.07	5.91	6.77	7.59
293.15 K	0.393	1.21	2.46	3.54	4.26	5.23	5.88	6.62	7.47	8.49
298.15 K	0.43	1.4	2.7	4.09	4.98	5.89	6.66	7.51	8.75	9.98
303.15 K	0.493	1.42	3.03	4.65	5.72	6.77	7.79	8.77	10.3	11.9

Cc1c(Br)c(=O)n(C2CCCC2)c2nc(Cl)ncc12 + CCOC(C)=O + CCO
solubility (g/100 g solution)
Conditions	278.15 K	283.15 K	288.15 K	293.15 K	298.15 K	303.15 K	308.15 K	313.15 K	318.15 K	323.15 K
x2 = 0.1	0.181	0.219	0.26	0.312	0.368	0.429	0.506	0.589	0.684	0.79
x2 = 0.2	0.238	0.286	0.341	0.403	0.475	0.553	0.645	0.746	0.86	0.987
x2 = 0.3	0.297	0.353	0.418	0.491	0.574	0.668	0.775	0.892	1.02	1.17
x2 = 0.4	0.349	0.414	0.492	0.571	0.665	0.77	0.888	1.02	1.17	1.32
x2 = 0.5	0.396	0.467	0.548	0.639	0.742	0.856	0.984	1.13	1.28	1.45
x2 = 0.6	0.438	0.514	0.602	0.701	0.811	0.931	1.07	1.22	1.38	1.57
x2 = 0.7	0.478	0.56	0.652	0.756	0.873	1	1.15	1.3	1.48	1.67
x2 = 0.8	0.52	0.608	0.706	0.817	0.939	1.08	1.23	1.39	1.57	1.77
x2 = 0.9	0.571	0.665	0.77	0.888	1.02	1.16	1.32	1.5	1.69	1.9
